Measurements from US8053578B2, “Alpha-fluoroalkyl dihydrotetrabenazine imaging agents and probes” (General Electric Company, priority 2007, dated 2011).

Target: T1, VMAT-2 (Homo sapiens, UniProt Q05940)
T1 construct: Novascreen Biosciences Corporation (contract assay provider) protocol Cat. No. 100-0751
Assay: VMAT-2 binding affinity measurement (Novascreen protocol Cat. No. 100-0751)
Settings: for VMAT-2 binding affinity, in words, relative to (+)-DTBZ control (Compound 18): summary of the Table 9 data; for Ki: Novascreen Biosciences protocol Cat. No. 100-0751
Description: In addition, the VMAT-2 binding affinity of a fluoroalkyl tetrabinazine carbinol compound 38 bearing an acetoxy group at ring position-2 was also measured. VMAT-2 binding affinity measurements were carried out by Novascreen Biosciences Corporation (Hanover, Md., USA) using protocol Cat. No. 100-0751. Novascreen, Inc. is a commercial provider of biological assays for the pharmaceutical industry.

T1 sequence (Q05940 whole entry, species assumed): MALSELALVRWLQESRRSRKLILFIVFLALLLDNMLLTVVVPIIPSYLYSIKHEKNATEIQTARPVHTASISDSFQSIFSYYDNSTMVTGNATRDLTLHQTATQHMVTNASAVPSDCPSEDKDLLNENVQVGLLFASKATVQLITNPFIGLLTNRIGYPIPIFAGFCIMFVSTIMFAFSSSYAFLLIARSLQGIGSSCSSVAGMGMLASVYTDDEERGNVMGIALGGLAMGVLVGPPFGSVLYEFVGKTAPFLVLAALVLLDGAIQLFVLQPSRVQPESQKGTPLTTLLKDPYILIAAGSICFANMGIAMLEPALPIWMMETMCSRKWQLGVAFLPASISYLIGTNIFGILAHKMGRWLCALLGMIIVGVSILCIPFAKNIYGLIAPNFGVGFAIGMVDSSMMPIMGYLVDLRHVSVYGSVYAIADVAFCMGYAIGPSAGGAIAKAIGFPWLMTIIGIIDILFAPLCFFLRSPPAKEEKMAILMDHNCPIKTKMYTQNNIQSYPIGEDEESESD

SMILES	VMAT-2 binding affinity, in words, relative to (+)-DTBZ control (Compound 18)	Ki [nM]
COc1cc2c(cc1OC)[C@H]1C[C@](O)(C#CCF)[C@H](CC(C)C)CN1CC2 [Compound 39]	somewhat lower yet still robust binding activity	–
COc1cc2c(cc1OC)[C@H]1C[C@H](O)[C@H](CC(C)(C)CC[19F])CN1CC2 [Compound 2-epi-32]	very high binding affinity	2.6
COc1cc2c(cc1OC)[C@H]1C[C@@](C#CCF)(OC(C)=O)[C@H](CC(C)C)CN1CC2 [Compound 38]	somewhat lower yet still robust binding activity	–
COc1cc2c(cc1OC)[C@H]1C[C@@H](O)[C@H](CCCC[19F])CN1CC2 [Compound 31]	very high binding affinity	6.4
COc1cc2c(cc1OC)[C@H]1C[C@@H](O)[C@H](CC(C)(C)CC[19F])CN1CC2 [Compound 32]	very high binding affinity	0.45
